The target in the assay is Genome polyprotein (Hepatitis C virus genotype 1a (isolate H77), UniProt P27958). In words: Continuous Spectrophotometric Assay. Particulars: pH 6.5; 30 °C. The protocol:
Proteolytic cleavage of the ester linkage between the Nva (L-norvaline) and the chromophore (PAP) was monitored for change in absorbance at 370 nm. Initial velocities were determined using linear regression and kinetic constants were obtained by fitting the data to the Michaelis-Menten equation.

SMILES strings stand for the structures. Numbered stars: 1 amine (or outer) side, 2 acyl side, 3 side chain; on linkers, the order of the positions; unused ones are H or OH. Square brackets hold non-standard residues; d marks the D form. Peptide text beside a SMILES is read from it. * marks the point of attachment. X1 = CCCC(N[*:1])C(=O)C(=O)[*:2]; Tic = O=C(O)[C@@H]1Cc2ccccc2CN1; Chg = N[C@H](C(=O)O)C1CCCCC1; Phg = N[C@H](C(=O)O)c1ccccc1; Boc = CC(C)(C)OC(=O)*

Genome polyprotein, sequence (P27958 1027-1657 limits assumed): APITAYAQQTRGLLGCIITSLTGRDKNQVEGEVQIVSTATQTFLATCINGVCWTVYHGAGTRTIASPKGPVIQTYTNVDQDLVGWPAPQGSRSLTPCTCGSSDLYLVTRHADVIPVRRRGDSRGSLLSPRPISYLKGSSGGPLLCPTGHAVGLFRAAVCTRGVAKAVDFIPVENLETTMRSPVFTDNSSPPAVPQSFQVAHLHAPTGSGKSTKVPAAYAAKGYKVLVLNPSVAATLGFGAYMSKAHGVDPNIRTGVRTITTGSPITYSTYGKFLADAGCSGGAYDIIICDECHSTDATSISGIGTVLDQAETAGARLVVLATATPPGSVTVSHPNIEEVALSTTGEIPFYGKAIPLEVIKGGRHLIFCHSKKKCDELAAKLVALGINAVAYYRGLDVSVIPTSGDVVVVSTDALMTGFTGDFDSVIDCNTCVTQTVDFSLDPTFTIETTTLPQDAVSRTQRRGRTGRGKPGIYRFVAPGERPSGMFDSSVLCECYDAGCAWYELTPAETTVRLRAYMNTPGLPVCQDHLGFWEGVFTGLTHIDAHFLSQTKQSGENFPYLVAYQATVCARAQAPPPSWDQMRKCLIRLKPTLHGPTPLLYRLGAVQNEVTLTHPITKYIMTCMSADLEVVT

In the case of `CCCC(NC(=O)[C@@H]1Cc2ccccc2CN1C(=O)[C@@H](NC(=O)OC(C)(C)C)C1CCCCC1)C(=O)C(=O)NCC(=O)N[C@H](C(=O)N(C)C)c1ccccc1` (stereo partly drawn) [tert-butyl N-[(1S)-1-cyclohexyl-2-[(3S)-3-({1-[({[(S)-(dimethylcarbamoyl)(phenyl)methyl]carbamoyl}methyl)carbamoyl]-1-oxopentan-2-yl}carbamoyl)-1,2,3,4-tetrahydroisoquinolin-2-yl]-2-oxoethyl]carbamate] (Boc-[Chg][Tic][X1]G[Phg]-NMe2), the Ki (as a rule, a dissociation constant, usually derived from enzyme kinetics or from competition with a known ligand) worked out at 1200 nM.

The values above are taken from BindingDB's records for doi:10.1021/jm050520a (Schering-Plough Research Institute, 2006).
